Measured values as given in the NIST ThermoML archive (doi:10.1021/je049585t).

Assay: molar heat capacity at constant pressure
Settings: 101.33 kPa

CC1=CCC2C(=O)OC(=O)C2C1 (stereo not drawn) [4-methyl-cyclohex-4-ene-1, 2-dicarboxylic acid anhydride]
Settings | molar heat capacity at constant pressure [J/K/mol]
205 K, Crystal | 122.4
205.18 K, Crystal | 123.46
207.19 K, Crystal | 124.73
209.14 K, Crystal | 126.14
210 K, Crystal | 126.39
211.09 K, Crystal | 127.51
213.03 K, Crystal | 128.87
214.97 K, Crystal | 130.45
215 K, Crystal | 130.57
216.9 K, Crystal | 132.32
218.84 K, Crystal | 133.96
220 K, Crystal | 134.91
220.75 K, Crystal | 135.72
222.7 K, Crystal | 137.13
224.58 K, Crystal | 138.58
225 K, Crystal | 139.36
226.56 K, Crystal | 139.98
228.41 K, Crystal | 141.35
230 K, Crystal | 143.9
230.19 K, Crystal | 142.86
232.01 K, Crystal | 144.4
233.86 K, Crystal | 145.93
235 K, Crystal | 148.46
235.74 K, Crystal | 147.41
237.59 K, Crystal | 149.22
239.37 K, Crystal | 150.76
240 K, Crystal | 153.02
241.16 K, Crystal | 152.29
242.94 K, Crystal | 153.83
244.82 K, Crystal | 155.45
245 K, Crystal | 157.52
246.54 K, Crystal | 157.09
248.36 K, Crystal | 158.9
250 K, Crystal | 161.95
250.17 K, Crystal | 160.56
251.99 K, Crystal | 162.22
253.81 K, Crystal | 163.9
255 K, Crystal | 166.26
255.54 K, Crystal | 165.36
257.36 K, Crystal | 167.29
259.09 K, Crystal | 168.63
260 K, Crystal | 170.45
260.82 K, Crystal | 170.5
262.61 K, Crystal | 172.01
264.31 K, Crystal | 173.55
265 K, Crystal | 174.52
266.12 K, Crystal | 175.31
267.82 K, Crystal | 177.02
269.53 K, Crystal | 178.52
270 K, Crystal | 178.5
271.28 K, Crystal | 180.17
273.31 K, Crystal | 181.94
275 K, Crystal | 182.44
275.35 K, Crystal | 183.81
277.03 K, Crystal | 185.45
278.73 K, Crystal | 187.1
280 K, Crystal | 186.41
280.36 K, Crystal | 188.67
282.45 K, Crystal | 190.66
284.97 K, Crystal | 193.03
285 K, Crystal | 190.55
287.46 K, Crystal | 195.7
289.88 K, Crystal | 197.97
290 K, Crystal | 195
292.31 K, Crystal | 200.61
294.67 K, Crystal | 203.16
295 K, Crystal | 199.98
297.1 K, Crystal | 205.53
298.15 K, Crystal | 203.5
299.37 K, Crystal | 207.64
300 K, Crystal | 205.75
301.81 K, Crystal | 210.9
304.16 K, Crystal | 213.44
305 K, Crystal | 212.62
306.51 K, Crystal | 215.82
308.81 K, Crystal | 218.8
310 K, Crystal | 221
311.13 K, Crystal | 221.26
313.43 K, Crystal | 224.91
315 K, Crystal | 231.34
315.72 K, Crystal | 227.54
317.98 K, Crystal | 230.32
320 K, Crystal | 244.2
320.22 K, Crystal | 234.71
322.44 K, Crystal | 240.42
324.6 K, Crystal | 251.25
325 K, Crystal | 260.21
326.7 K, Crystal | 266.66
328.7 K, Crystal | 300.96
330 K, Crystal | 280.12
337.34 K, Liquid | 308.51
339.25 K, Liquid | 307.6
340 K, Liquid | 306.94
341.15 K, Liquid | 306.76
343.06 K, Liquid | 306.95
344.96 K, Liquid | 308.07
345 K, Liquid | 308.18
346.86 K, Liquid | 309.65
348.76 K, Liquid | 311.73
350 K, Liquid | 313.29
350.67 K, Liquid | 314.26
352.57 K, Liquid | 316.99
354.47 K, Liquid | 319.51
355 K, Liquid | 320.24
356.36 K, Liquid | 322.01
358.26 K, Liquid | 324.95
360 K, Liquid | 327.6
360.13 K, Liquid | 327.9
